Values of other authors in patent US8216495B2, “Preparation method for solid dispersions” (Formac Pharmaceuticals N.V., priority 2008, dated 2012).
Values after ≈ are worked out from the molar mass of the structure shown.

Experiments:
[1] = not given; remark: listed apart in the source
[2] = weak base

For `NC(=O)N1c2ccccc2C=Cc2ccccc21` [Carbamazepine, 5H-dibenz[b,f]azepine-5-carboxamide], the “solubility in alcohol and acetone” value (alcohol and acetone) is listed as “soluble” and the solubility in water is listed as “practically insoluble”.
For `C#C[C@]1(O)CC[C@H]2[C@@H]3CCC4=Cc5oncc5C[C@]4(C)[C@H]3CC[C@@]21C` [Danazol, 17a-Pregna-2,4-dien-20-yno[2,3-d]-isoxazol-17-ol], the half-life ([1]; danazol administered orally) is listed as 4 to 5 h, the “increase in plasma concentration on doubling the dose” value ([1]; danazol administered orally) is listed as 30-40% and the “time of peak concentrations” value ([1]; danazol administered orally) is listed as at most 2 h.
For `CCC(C)n1ncn(-c2ccc(N3CCN(c4ccc(OCC5COC(Cn6cncn6)(c6ccc(Cl)cc6Cl)O5)cc4)CC3)cc2)c1=O` (stereo not drawn) [Itraconazole], the aqueous solubility (pH=1) is given as 4 µg/mL (≈ 5.67 µM) and the pKa [2] is given as 4.0.
In the case of `CC(=O)O[C@H]1C(=O)[C@@]2(C)[C@H]([C@H](OC(=O)c3ccccc3)[C@]3(O)C[C@H](OC(=O)[C@H](O)[C@@H](NC(=O)c4ccccc4)c4ccccc4)C(C)=C1C3(C)C)[C@]1(OC(C)=O)CO[C@@H]1C[C@@H]2O` [Paclitaxel], the solubility in water is listed as “insoluble”.
In the case of `C=CC[C@@H]1/C=C(\C)C[C@H](C)C[C@H](OC)[C@H]2O[C@@](O)(C(=O)C(=O)N3CCCC[C@H]3C(=O)O[C@H](/C(C)=C/[C@@H]3CC[C@@H](O)[C@H](OC)C3)[C@H](C)[C@@H](O)CC1=O)[C@H](C)C[C@@H]2OC` [Tacrolimus], the solubility in ethanol (ethanol) is listed as “freely soluble”, the “solubility in methanol and chloroform” value (methanol and chloroform) is listed as “very soluble” and the solubility in water is listed as “practically insoluble”. The absolute bioavailability ([1]; 5 mg dose taken twice a day, oral) was “approximately 17%”.
